Measured values from the NIST ThermoML archive (doi:10.1016/j.fluid.2015.09.050).
Numbers after ± are expanded uncertainties.

Conditions: Liquid, pendant drop method

## C [methane] + O
311 K, 3390 kPa
  interfacial tension: 66.03 ± 7.8 mN/m
311 K, 7540 kPa
  interfacial tension: 59.95 ± 7.1 mN/m
311 K, 14380 kPa
  interfacial tension: 57.94 ± 7 mN/m
311 K, 28210 kPa
  interfacial tension: 52.29 ± 6.5 mN/m
311 K, 44730 kPa
  interfacial tension: 51.43 ± 6.6 mN/m
311 K, 61300 kPa
  interfacial tension: 49.28 ± 6.5 mN/m
311 K, 81600 kPa
  interfacial tension: 50.39 ± 6.7 mN/m
373.2 K, 3650 kPa
  interfacial tension: 54.76 ± 6.5 mN/m
373.2 K, 10070 kPa
  interfacial tension: 50.64 ± 6 mN/m
373.2 K, 21140 kPa
  interfacial tension: 48.29 ± 5.8 mN/m
373.2 K, 30540 kPa
  interfacial tension: 45.02 ± 5.5 mN/m
373.2 K, 51020 kPa
  interfacial tension: 42.2 ± 5.4 mN/m
373.2 K, 60310 kPa
  interfacial tension: 41.61 ± 5.4 mN/m
373.2 K, 71050 kPa
  interfacial tension: 41.92 ± 5.5 mN/m
373.2 K, 82760 kPa
  interfacial tension: 41.93 ± 5.5 mN/m
423.2 K, 2740 kPa
  interfacial tension: 49.23 ± 5.8 mN/m
423.2 K, 7290 kPa
  interfacial tension: 46.41 ± 5.5 mN/m
423.2 K, 17170 kPa
  interfacial tension: 42.69 ± 5.1 mN/m
423.2 K, 27790 kPa
  interfacial tension: 40.72 ± 5 mN/m
423.2 K, 38470 kPa
  interfacial tension: 38.35 ± 4.7 mN/m
423.2 K, 48440 kPa
  interfacial tension: 39.43 ± 5 mN/m
423.2 K, 62280 kPa
  interfacial tension: 38.6 ± 4.9 mN/m
423.2 K, 75910 kPa
  interfacial tension: 39.19 ± 5.1 mN/m
423.2 K, 89770 kPa
  interfacial tension: 38.67 ± 5.1 mN/m
473.2 K, 2410 kPa
  interfacial tension: 40.35 ± 4.8 mN/m
473.2 K, 14090 kPa
  interfacial tension: 34.86 ± 4.2 mN/m
473.2 K, 21220 kPa
  interfacial tension: 34.2 ± 4.1 mN/m
473.2 K, 34790 kPa
  interfacial tension: 32.44 ± 4 mN/m
473.2 K, 51540 kPa
  interfacial tension: 30.53 ± 3.8 mN/m
473.2 K, 70120 kPa
  interfacial tension: 31.46 ± 4 mN/m
473.2 K, 83440 kPa
  interfacial tension: 30.74 ± 4 mN/m
